In patent US9340577B2, “HLA binding motifs and peptides and their uses” (priority 1992, dated 2016) one finds IC50 data, which are given here for 17 compounds.

Common to all, as to assay: biochemical
Assay [1] concerns the target DRB5*0101 (Homo sapiens, UniProt P01903+Q30154). The conditions noted are these: Binding affinity DRB5 *0101.
The target of assay [2] is DRB1*0802 (Homo sapiens, UniProt P01903+P01911, A100R/A103L/A169T/F76Y/H45Y/I96F/K41T/L162R/M171V/P40S/Q125H/Q178H/Q39Y/Q99D/R218S/R42G/S66Y/V115G/W38E). Type of assay: binding.
Assay [3] has as its target DR4w4 (DRB1*0401) (Homo sapiens, UniProt P01903+P01911, A100K/A169T/F76Y/I96L/K127E/L162R/M171V/N62H/P40V/Q125Y/R42H/S133A/S149N/S66Y/V115G/V209L/W38E). Type of assay: binding.
Assay [4] deals with DRB1*1201 (Homo sapiens, UniProt P01903+P01911, A100R/A169T/D57E/D86V/F55L/H45Y/K41T/L162R/M171V/P40S/Q125H/Q178H/Q39Y/Q99D/R42G/S66L/T262R/V114A/V67L/W38E/Y59H/Y61H/Y89S). Type of assay: binding.
In assay [5] the target is DRB1*0405 (Homo sapiens, UniProt P01903+P01911, A100R/A169T/D86S/F76Y/I96L/K127E/L162R/M171V/N62H/P40V/Q125Y/R42H/S133A/S149N/S66Y/V115G/V209L/W38E). The format is binding.
Assay [6] has as its target DRB4*0101 (Homo sapiens, UniProt P01903+P13762, G164S). The format is binding.
Assay [7] has as its target DRB1*1501 (Homo sapiens, UniProt P01903+P01911). Type of assay: binding.
The target of assay [8] is DRB1*0901 (Homo sapiens, UniProt P01903+P01911, A100R/A103E/D57H/D86V/F55Y/F60I/F76Y/I96F/K127E/L162R/M171V/P40D/Q125H/Q99R/R33Q/R42F/S133A/S66N/T210M/V115G/W38K/Y107V/Y59G/Y89S). The format is binding.
For assay [9], the target named is DRB1*1101 (Homo sapiens, UniProt P01903+P01911, A100R/A169T/A87E/I96F/K41T/L162R/M171V/P40S/Q125H/Q178H/Q39Y/Q99D/R42S/S66Y/T262R/V115G/W38E).
Assay [10] deals with DR1 (DRB1*0101) (Homo sapiens, UniProt P01903+P01911, A100R/D57E/F55L/F60I/F76Y/I96L/L162R/M171V/P40L/Q125E/R42F/V115G/Y59C). The format is binding.
Assay [11] concerns the target DRB1*1302 (Homo sapiens, UniProt P01903+P01911, A100E/A169T/K41T/L162R/M171V/P40S/Q125H/Q178H/Q39Y/Q99D/R42S/S66N/T262R/V115G/W38E/Y61H). Type of assay: binding.
For assay [12], the target named is DR7 (DRB1*0701) (Homo sapiens, UniProt P01903+P01911, A100R/A102G/A103Q/D57E/D86V/E43K/F76Y/K127E/L162R/M171V/P40G/Q125H/Q99D/R33Q/R42Y/R54Q/S133A/S66F/T210M/V115G/Y107V/Y59L/Y89S). The format is binding.

No end group written: not given here. Where only a bound is given, the exact number is not on record here.

Sequence of DRB1*1101 (P01903 26-254 limits assumed, other chains not shown): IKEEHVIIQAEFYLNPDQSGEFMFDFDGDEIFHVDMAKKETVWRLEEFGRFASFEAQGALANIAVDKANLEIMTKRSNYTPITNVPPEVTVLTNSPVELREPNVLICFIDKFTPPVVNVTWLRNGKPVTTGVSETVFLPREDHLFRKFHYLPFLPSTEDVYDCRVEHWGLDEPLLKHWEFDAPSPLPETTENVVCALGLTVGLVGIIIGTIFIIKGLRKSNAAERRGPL
Sequence of DRB1*1302 (P01903 26-254 limits assumed, other chains not shown): as above

For orientation: IC50 means the point on the concentration scale where inhibition reaches its midpoint. The low end stands for higher potency, the high end for lower potency. For the compound GVYYIKDGDTTYYVQ [Peptide 90.0216], the IC50 in [1] was > 20000 nM; in assay [2] it was 5620 nM; in [3] it was 2480 nM; in [4], 5740 nM; in [5] it was 7090 nM; in assay [6], > 20000 nM. Also, the IC50 in assay [7] is > 20000 nM; in [8], 1620 nM; in assay [9] (Binding affinity DRB1 *1101), > 20000 nM; in [10] it was 1550 nM.

CWNYIDDNLRNALDG [Peptide 90.0041]: the IC50 in [1], in [11], in [2], in assay [4], in assay [5] and in [6] was > 20000 nM throughout. Moreover, the IC50 in assay [7], in [8], in assay [9] (Binding affinity DRB1 *1101), in [10] and in assay [12] was > 20000 nM in each case.

With IYIIEEDTCTMVTGK [Peptide 90.0204], the 50% inhibitory concentration (IC50) was > 20000 nM in assay [1]; 994 nM in assay [11]; > 20000 nM in assay [2]; 151 nM in [3]; 16500 nM in assay [4]; 18700 nM in [5]. Moreover, the IC50 in assay [7] was 18700 nM; in assay [8], > 20000 nM; in assay [9] (Binding affinity DRB1 *1101), 11900 nM; in [10] it was 2230 nM; in assay [12] it was 8190 nM.

As to ITFLGALKSFLKGTP [Peptide 89.0034], the IC50 in assay [1] was 19 nM; in assay [11], > 20000 nM; in assay [4], 44 nM; in assay [6], 1500 nM; in [7] it was 128 nM; in assay [8], 7620 nM. Moreover, the values for the IC50 in assay [10] and in [12] were 18 nM and 2960 nM, respectively.

As to ESVFSSDEISFAGIV [Peptide 90.0195], the IC50 is > 20000 nM in [1]; 235 nM in [11]; > 20000 nM in assay [2]; 33 nM in [3]; > 20000 nM in assay [4]; 8580 nM in assay [5]. Also, the IC50 in [7] was 1980 nM; in assay [8], 672 nM; in assay [9] (Binding affinity DRB1 *1101) it was > 20000 nM; in [10], 2380 nM; in [12] it was 609 nM.

Turning to IWEVHMENESIYCPD [Peptide 90.0237], the IC50 in assay [1] is > 20000 nM; in [11], 1960 nM; in [2], > 20000 nM; in [3], 3380 nM; in [4], > 20000 nM; in assay [5], > 20000 nM. Moreover, the 50% inhibitory concentration (IC50) in [7] is > 20000 nM; in assay [8], 5490 nM; in assay [9] (Binding affinity DRB1 *1101), > 20000 nM; in [10] it was 1780 nM; in assay [12] it was > 20000 nM.

For `CSCC[C@H](NC(=O)[C@H](CCC(=O)O)NC(=O)[C@H](CCC(N)=O)NC(=O)[C@@H]1CCCN1)C(=O)N[C@@H](CCCCN)C(=O)N[C@H](C(=O)N[C@@H](Cc1ccc(O)cc1)C(=O)N[C@@H](CO)C(=O)N[C@H](C(=O)N[C@@H](CO)C(=O)N[C@@H](Cc1ccccc1)C(=O)N[C@@H](CC(=O)O)C(=O)N[C@@H](CO)C(=O)N[C@@H](CC(C)C)C(=O)N[C@@H](Cc1ccccc1)C(=O)O)C(C)C)[C@@H](C)O` [Peptide 68.0127], the IC50 in assay [11] is > 20000 nM; in assay [2], > 20000 nM; in [4] it was 5350 nM; in assay [9] (Binding affinity DRB1 *1101) it was > 20000 nM.

As to LNVLKTSNAKAAMLA [Peptide 89.0003], the IC50 in [1] is 768 nM; in [11], 8.9 nM; in assay [3] it was 3.4 nM; in [4], 531 nM; in assay [5] it was 2380 nM; in assay [6] it was 509 nM. In addition, the IC50 in assay [8] amounted to 197 nM; in assay [9] (Binding affinity DRB1 *1101), 198 nM; in [10] it was 33 nM; in assay [12], 20 nM.

With `CC[C@H](C)[C@H](NC(=O)[C@H](CO)NC(=O)[C@H](CO)NC(=O)[C@H](CC(=O)O)NC(=O)[C@H](C)NC(=O)[C@H](CC(N)=O)NC(=O)[C@@H](NC(=O)[C@H](Cc1ccc(O)cc1)NC(=O)[C@H](C)NC(=O)[C@@H](NC(=O)CNC(=O)[C@H](CCCNC(=N)N)NC(=O)[C@@H](N)CCC(=O)O)C(C)C)[C@@H](C)CC)C(=O)N[C@@H](CCC(=O)O)C(=O)NCC(=O)O` [Peptide 68.0109], the IC50 in [2], in assay [4], in assay [7], in [8], in assay [9] (Binding affinity DRB1 *1101) and in assay [12] was > 20000 nM in each case.

With VSFLSALKLFLKGVP [Peptide 89.0053], the IC50 was found to be 290 nM in [2]; 1570 nM in [3]; 82 nM in assay [4]; 23 nM in [6]; 1450 nM in assay [7]; 2120 nM in assay [8]. Besides, the IC50 in [9] (Binding affinity DRB1 *1101) stood at 64 nM; in [10], 23 nM.

As for PRWLCAGALVLAGGF [Peptide 68.0083], the IC50 was > 20000 nM in assay [1]; > 20000 nM in assay [11]; > 20000 nM in assay [2]; 4600 nM in [4]; > 20000 nM in assay [9] (Binding affinity DRB1 *1101).

For PEWIDRLTVLQHSFN [Peptide 89.0070], the IC50 in [1] was > 20000 nM; in assay [4], 203 nM; in assay [5], 79 nM; in assay [6], 13 nM; in [7], 982 nM; in assay [8], 4150 nM. Further, the IC50 in assay [9] (Binding affinity DRB1 *1101) was 2640 nM; in assay [10], 2610 nM; in assay [12], > 20000 nM.

As to SLSLGFLFLLFFWLD [Peptide 68.0022], the IC50 was > 20000 nM in assay [1]; > 20000 nM in [2]; 1220 nM in assay [4]; > 20000 nM in [6]; > 20000 nM in assay [8]; > 20000 nM in [9] ([…]). In assay [12], the IC50 was > 20000 nM.

Regarding SEIYIIEETTCTLVA [Peptide 90.0250], the IC50 in [1] was > 20000 nM; in assay [11], 399 nM; in assay [2], > 20000 nM; in [4], > 20000 nM; in assay [5] it was 8080 nM; in assay [6], 231 nM. Moreover, the IC50 in assay [8], in assay [9] (Binding affinity DRB1 *1101) and in [12] was > 20000 nM each time.

Regarding LSHVKIPVVYRLVWD [Peptide 90.0020], the IC50 in [1] was found to be 1340 nM; in assay [11], 329 nM; in assay [2] it was 3570 nM; in assay [3], 3950 nM; in assay [4], 100 nM; in assay [5] it was 525 nM. In addition, the IC50 in assay [6] came to 22 nM; in [8], 469 nM; in assay [10], 79 nM.

For MAIFGVNPTVAEGFK [Peptide 89.0081], the IC50 turned out to be 35 nM in [11]; 1090 nM in assay [2]; 75 nM in assay [3]; 1200 nM in [4]; 36 nM in [5]; 426 nM in assay [6]. Moreover, the IC50 is 1560 nM in assay [8] and 41 nM in assay [9] (Binding affinity DRB1 *1101).

On to ELQMALKGLAQSKYN [Peptide 90.0005], for which the IC50 amounted to 475 nM in assay [1]; 10000 nM in [11]; 127 nM in [2]; 2220 nM in [3]; 41 nM in [4]; 5950 nM in assay [5]. For the same compound, the IC50 in assay [7] is > 20000 nM; in [8] it was 348 nM; in [9] (Binding affinity DRB1 *1101), 64 nM; in assay [10], 81 nM; in assay [12], > 20000 nM.
